# From patent US20200289527A1, “FORMULATION CONTAINING A-DECARBONIZED-5a ANDROSTANE COMPOUND FOR INCREASING WHITE BLOOD CELL AND USE THEREOF” (priority 2017, published 2020)
# Read-outs that look alike come from different tables or passages of the source. Marks after values point to notes of the source that are not given here.
# How the values were obtained:
# [1] = tested on: white blood cells in mice bearing Lewis lung tumor
# Source text: The vigorously growing tumor cells were taken and prepared into cell suspension with a concentration of about 5-10×10^6/ml by homogenization under sterile condition.
# At the beginning of the experiment, 10 mice were randomly sampled for blood collection by posterior orbital venous plexus puncture, and an automatic blood cell analyzer (HEMAVET-950) was used to conduct the routine blood test. Then the blood was collected for the routine blood test by the same method on the 8th and 12th days after the last administration of cyclophosphamide.
# [2] = tested on: white blood cells in tumor patients; conditions: for Effect of increasing WBC (C1/Czs): all 10 subjects, 15-45 mg total daily dose, Day 0 = 100%; for average extent of increasing white blood cells: average of subjects
# Experimental: Blood was collected on the day before the administration, and the routine blood test was conducted to determine the number of white blood cells (Czs) before the subjects were treated with the medicine of the present invention.
# 10 subjects took ACP at different administrated frequency and dose every day (see Table 2). Blood was collected from 10 subjects at Day 8, 15, 22, and 28 for routine blood test.
# [3] = chemotherapy control group, CTX 150/100 mg/kg ip, reference = 100%
# [4] = subject GBYI, Day 0 count 4.3, once a day, total daily dose 15 mg
# [5] = subject LXJV, Day 0 count 2.7, three times a day, total daily dose 30 mg
compound,measurement,setting,value
"O=P1(N(CCCl)CCCl)NCCCO1 (centres unmarked) [CTX, cyclophosphamide]",effect on white blood cells of peripheral blood in mice,[1]; chemotherapy control group,caused a decrease of white blood cells of peripheral blood in mice
same,Day 8 (10^3 WBC/μl),"[1]; chemotherapy control group, CTX 150/100 mg/kg ip, 8th day after last CTX",0.41 ± 0.07 10^3 WBC/μl
same,Day 12 (10^3 WBC/μl),"[1]; chemotherapy control group, CTX 150/100 mg/kg ip, 12th day after last CTX",1.48 ± 0.37 10^3 WBC/μl
same,Day 8 (%),[1]; [3],100%
same,Day 12 (%),[1]; [3],100%
"C#C[C@@]1(OC(C)=O)C[C@@H]2CC[C@@H]3[C@H](CC[C@@]4(C)[C@H]3CC[C@]4(C#C)OC(C)=O)[C@@]2(C)C1 [ACP1, 2α,17α-diethynyl-A-decarbonized-5α-androstane-2β,17β-dihydroxyl diacetate compound]",Day 8 (10^3 WBC/μl),"[1]; mouse, in vivo, 5 mg/kg",4.21 ± 1.22 10^3 WBC/μl
same,Day 8 (%),"[1]; mouse, in vivo, 5 mg/kg",1027%*
same,Day 12 (10^3 WBC/μl),"[1]; mouse, in vivo, 5 mg/kg",4.32 ± 1.29 10^3 WBC/μl
same,Day 12 (%),"[1]; mouse, in vivo, 5 mg/kg",292%*
same,Effect of increasing WBC (C1/Czs),[2]; Day 8,146%
same,extent of increasing white blood cells (Cl/Czs-100%),"[2]; Day 8, compared with before treatment",about 50%
same,Effect of increasing WBC (C1/Czs),[2]; Day 15,180%
same,average extent of increasing white blood cells,[2]; Day 15,about 80%
same,maximum extent of increasing white blood cells,"[2]; Day 15, maximum among subjects",about 178%
same,extent of increasing white blood cells,[2]; Day 22,about 63%
same,Effect of increasing WBC (C1/Czs),[2]; Day 22,163%
same,Effect of increasing WBC (C1/Czs),[2]; Day 28,149%
same,average extent of increasing white blood cells,[2]; Day 28,about 50%
same,"WBC count during administration, Day 8",[2]; [4],5.8 10^9/L
same,"WBC count during administration, Day 15",[2]; [4],6.9 10^9/L
same,"WBC count during administration, Day 22",[2]; [4],6.3 10^9/L
same,"WBC count during administration, Day 28",[2]; [4],7.0 10^9/L
same,"WBC count during administration, Day 8",[2]; [5],5.9 10^9/L
same,"WBC count during administration, Day 15",[2]; [5],7.5 10^9/L
same,"WBC count during administration, Day 22",[2]; [5],6.0 10^9/L
same,"WBC count during administration, Day 28",[2]; [5],6.1 10^9/L
